Consider 30 compounds from ChEMBL document CHEMBL3751734, “Late-stage optimization of a tercyclic class of S1P3-sparing, S1P1 receptor agonists” (Bioorg Med Chem Lett, 2016).

In general, EC50 refers to the concentration that produces a half-maximal response. For orientation: solubility (thermodynamic) means the concentration in solution at equilibrium with solid.

Values after ≈ are worked out from the molar mass of the structure shown.

The target in data set [1] is Sphingosine 1-phosphate receptor 1 (Homo sapiens, UniProt P21453). The data set is described as follows: Agonist activity at human S1P1 receptor expressed in EDG1-bla U2OS cells incubated for 18 hrs prior to GenBlazer substrate addition by beta-arrestin recruitment assay. In kind it is cell-based. Background: Arrestin recruitment assays detect the binding of arrestin to an activated receptor.
Sphingosine 1-phosphate receptor 1, sequence (P21453 whole entry): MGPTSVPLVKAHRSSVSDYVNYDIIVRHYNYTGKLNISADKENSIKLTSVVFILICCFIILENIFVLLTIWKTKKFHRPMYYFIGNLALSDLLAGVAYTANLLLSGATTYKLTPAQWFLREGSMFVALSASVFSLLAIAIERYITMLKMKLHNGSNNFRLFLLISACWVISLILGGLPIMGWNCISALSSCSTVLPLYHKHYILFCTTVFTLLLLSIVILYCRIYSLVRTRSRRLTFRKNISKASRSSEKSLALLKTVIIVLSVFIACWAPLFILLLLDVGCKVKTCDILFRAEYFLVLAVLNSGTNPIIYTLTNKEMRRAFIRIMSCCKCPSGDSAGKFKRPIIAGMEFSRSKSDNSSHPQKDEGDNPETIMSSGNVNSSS

A short description of data set [2]: Kinetic solubility of the compound in buffer at pH 7.4 after 16 to 19 hrs by UV absorbance assay. Particulars: read-out: Kinetic_solubility. Format: physicochemical.
Data set [3] addresses Sphingosine 1-phosphate receptor 3 (Homo sapiens, UniProt Q99500). The data set is described as follows: Agonist activity at human S1P3 receptor expressed in EDG3-bla U2OS cells incubated for 18 hrs prior to GenBlazer substrate addition by beta-arrestin recruitment assay. Format: cell-based.
Data set [4] in a line: Equilibrium solubility of the compound in citric acid monohydrate/Na2HPO4 dihydrate buffer at pH 6.8 after 24 hrs by RP-HPLC analysis. Format: physicochemical.
Another data set is filed under the species Homo sapiens. The data set is described as follows: Selectivity ratio of EC50 for human S1P5 receptor to EC50 for human S1P1 receptor.
Data set [5] has as its target Sphingosine 1-phosphate receptor 5 (Homo sapiens, UniProt Q9H228). The data set is described as follows: Agonist activity at human S1P5 receptor expressed in EDG8-bla U2OS cells incubated for 18 hrs prior to GenBlazer substrate addition by beta-arrestin recruitment assay. Format: cell-based.
The subject of a further data set is HepG2. Briefly: Toxicity in human HepG2 cells assessed as phospholipidosis at 0.1 to 200 uM after 48 hrs by Hoechst […] staining-based lipidTOX assay. In kind it is cell-based. The settings on record: hepg2, 48 h.
Data set [6] is described as follows: Ratio of drug level in brain to plasma (unknown origin). Format: ADME, cell-free. Particulars: read-out: BPR.

Sphingosine 1-phosphate receptor 3, sequence (Q99500 whole entry): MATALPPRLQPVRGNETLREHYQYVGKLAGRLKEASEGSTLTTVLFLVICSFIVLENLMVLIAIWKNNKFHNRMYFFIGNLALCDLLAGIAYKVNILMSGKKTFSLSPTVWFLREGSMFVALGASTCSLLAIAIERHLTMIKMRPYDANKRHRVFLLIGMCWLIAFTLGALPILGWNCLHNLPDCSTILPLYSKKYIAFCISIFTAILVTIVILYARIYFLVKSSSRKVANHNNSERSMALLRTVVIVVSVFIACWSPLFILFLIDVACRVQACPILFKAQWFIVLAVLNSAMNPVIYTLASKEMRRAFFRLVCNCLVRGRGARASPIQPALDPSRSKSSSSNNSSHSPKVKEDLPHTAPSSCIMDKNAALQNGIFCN
Sphingosine 1-phosphate receptor 5, sequence (Q9H228 whole entry): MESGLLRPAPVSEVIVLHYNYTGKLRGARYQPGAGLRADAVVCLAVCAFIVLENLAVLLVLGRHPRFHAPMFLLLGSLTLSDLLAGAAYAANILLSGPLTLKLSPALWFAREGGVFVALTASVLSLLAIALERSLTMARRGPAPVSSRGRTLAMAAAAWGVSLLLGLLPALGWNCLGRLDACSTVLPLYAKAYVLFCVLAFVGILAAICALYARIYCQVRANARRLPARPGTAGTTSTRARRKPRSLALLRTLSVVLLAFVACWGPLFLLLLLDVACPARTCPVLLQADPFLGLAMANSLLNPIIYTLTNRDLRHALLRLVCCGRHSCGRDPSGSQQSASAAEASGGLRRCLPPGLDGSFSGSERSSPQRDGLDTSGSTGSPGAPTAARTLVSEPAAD

For `CC(C)Oc1ccc(-c2nc(-c3cc(F)c(OC[C@H](N)CO)cc3Cl)no2)cc1Cl`, the EC50 in data set [1] is 4.1 nM; in data set [3], above 10000 nM. For the same compound, the solubility kinetic in data set [2] is below 0.1 µg/mL.

`CCCCCCCCc1ccc(CCC(N)(CO)CO)cc1` [FINGOLIMOD]: the EC50 in data set [3] is above 10000 nM.

With `CC(C)Cc1ccc(-c2nc(-c3ccc([C@@H](C)N[C@H]4C[C@@H](C(=O)O)C4)cc3)no2)cc1`, the values for the EC50 in data set [1] and in data set [3] were 1.9 nM and above 10000 nM, respectively.

For the compound `Cc1cc(-c2nc(-c3ccc(O[C@H]4CCC(=O)NC4)c(C)n3)no2)cc(NC(C)C)n1`, the EC50 in data set [1] is 42 nM; in data set [3], above 10000 nM; in data set [5], 350 nM. Moreover, in data set [2], the solubility kinetic is above 40 µg/mL. In data set [4], this compound yielded a thermodynamic solubility at 24 h of 12 µg/mL (≈ 28.4 µM). Further, the Ratio EC50 in the data set filed under Homo sapiens turned out to be 7.

In turn, `Cc1cc(-c2nc(-c3cc(F)c(OC[C@H]4COC(=O)N4)cc3Cl)no2)cc(NC(C)C)n1` had a concentration for a half-maximal effect (EC50) in data set [1] of 0.6 nM. In addition, in data set [2], the solubility kinetic stood at 0.1 µg/mL (≈ 0.217 µM). Also, in the data set on HepG2, the Activity result was “Non-toxic”.

Consider `Cc1nc(CC(C)C)cc(-c2nc(-c3cc(F)c(O[C@@H]4CCC(=O)N(C)C4)cc3Cl)no2)n1`, for which the EC50 in data set [1] is 32 nM; in data set [3] it was above 10000 nM; in data set [5], 215 nM. Besides, the solubility kinetic in data set [2] worked out at 26 µg/mL (≈ 54.9 µM). This compound also yielded a solubility (thermodynamic) at 24 h in data set [4] of 10 µg/mL (≈ 21.1 µM). Also, the Ratio EC50 in the data set listed under Homo sapiens is 7. Besides, in data set [6], the Kp came to 0.1.

As for `CCCCCCCCCCCCC/C=C/[C@@H](O)[C@@H](N)COP(=O)(O)O`, the EC50 amounted to 2.8 nM in data set [1] and 79 nM in data set [3].

As for `CC(C)Oc1ccc(-c2nnc(-c3cc(F)c(OC[C@H](N)CO)cc3Cl)s2)cc1Cl`, the EC50 in data set [1] was 32 nM; in data set [3] it was above 10000 nM. In data set [2], the solubility kinetic was below 0.1 µg/mL.

Turning to `CC(=O)N1CCOC[C@@H]1COc1cc(Cl)c(-c2nnc(-c3cc(C)nc(NC(C)C)c3)s2)cc1F`, a half-maximal response in data set [1] (EC50) required 310 nM. For the same compound, the solubility kinetic in data set [2] amounted to 1 µg/mL (≈ 1.92 µM).

In turn, `CC(C)Oc1ncc(-c2nnc(-c3cc(F)c(OC[C@H](N)CO)cc3Cl)s2)cc1Cl` yielded an EC50 in data set [1] of 100 nM. In data set [2], the solubility kinetic was below 0.1 µg/mL.

Regarding `CC(=O)N1CCOC[C@@H]1COc1cc(Cl)c(-c2noc(-c3cc(C)nc(NC(C)C)c3)n2)cc1F`, in data set [1], the EC50 was 4.1 nM. Further, in data set [2], the solubility kinetic turned out to be 0.1 µg/mL (≈ 0.198 µM).

As for `Cc1cc(-c2nnc(-c3cc(F)c(O[C@H]4COC[C@H]4O)cc3Cl)s2)cc(NC(C)C)n1` (racemic), in data set [1], the EC50 was 147 nM. Further, the solubility kinetic in data set [2] stood at 0.2 µg/mL (≈ 0.43 µM).

Compound `Cc1cc(-c2nc(-c3ccc(OC[C@H]4COC(=O)N4)c(F)c3)no2)cc(NC(C)C)n1` displayed an EC50 in data set [1] of 0.5 nM. Besides, the solubility kinetic in data set [2] came out at 0.1 µg/mL (≈ 0.234 µM).

In data set [1], `Cc1cc(-c2nc(-c3cc(F)c(OC[C@H]4OCC[C@@H]4O)cc3Cl)no2)cc(NC(C)C)n1` returned an EC50 of 6 nM. In addition, the solubility kinetic in data set [2] came out at 0.1 µg/mL (≈ 0.216 µM).

For `Cc1cc(-c2nc(-c3cc(F)c(OC[C@H]4CCC(=O)N4)cc3Cl)no2)cc(NC(C)C)n1`, in data set [1], the EC50 came out at 0.8 nM. Also, the solubility kinetic in data set [2] amounted to 0.1 µg/mL (≈ 0.217 µM).

`Cc1cc(-c2nnc(-c3cc(F)c(O[C@H]4CCC(=O)NC4)cc3Cl)s2)cc(NC(C)C)n1`: the EC50 in data set [1] amounted to 160 nM. For the same compound, the solubility kinetic in data set [2] was determined as 0.8 µg/mL (≈ 1.68 µM).

As to `Cc1cc(-c2nnc(-c3cc(F)c(OC[C@H]4COC(=O)N4)cc3Cl)s2)cc(NC(C)C)n1`, the EC50 in data set [1] was found to be 86 nM. The solubility kinetic in data set [2] worked out at 0.3 µg/mL (≈ 0.628 µM).

As for `Cc1cc(-c2nc(-c3ccc(OC[C@H]4COC(=O)N4)c(C)n3)no2)cc(NC(C)C)n1`, a half-maximal effect in data set [1] (EC50) was put at 7.9 nM. Moreover, the solubility kinetic in data set [2] was determined as 17 µg/mL (≈ 40.1 µM).

In data set [1], `Cc1cc(-c2nc(-c3cnc(OC[C@H]4COC(=O)N4)cn3)no2)cc(NC(C)C)n1` had an EC50 of 150 nM. Besides, the solubility kinetic in data set [2] is 25 µg/mL (≈ 60.8 µM).

`CC(C)Oc1ccc(-c2nc(-c3cc(F)c(OC[C@H](N)CO)cc3Cl)no2)cc1C#N` showed an EC50 in data set [1] of 0.1 nM. Further, the solubility kinetic in data set [2] is below 0.1 µg/mL.

`CCOc1ncc(-c2nnc(-c3cc(F)c(OC[C@H](N)CO)cc3Cl)s2)cc1Cl` showed an EC50 in data set [1] of 594 nM. Also, the solubility kinetic in data set [2] was below 0.1 µg/mL.

Regarding `Cc1cc(-c2nnc(-c3cc(F)c(O[C@@H]4CCC(=O)NC4)cc3Cl)s2)cc(NC(C)C)n1`, the EC50 in data set [1] is 300 nM. Also, the solubility kinetic in data set [2] was determined as 1 µg/mL (≈ 2.1 µM).

Consider `Cc1nc(CC(C)C)cc(-c2nc(-c3ccc(O[C@@H]4CCC(=O)NC4)c(F)c3)no2)n1`, for which the results for the EC50 in data set [1], in data set [3] and in data set [5] were 50 nM, above 10000 nM and 360 nM, respectively. The solubility kinetic in data set [2] was above 40 µg/mL. The solubility (thermodynamic) at 24 h in data set [4] came out at 27 µg/mL (≈ 63.5 µM). The Ratio EC50 in the data set listed under Homo sapiens came out at 7. Besides, the Kp in data set [6] was 0.1.

`Cc1cc(-c2nnc(-c3cc(F)c(OC[C@H](N)CO)cc3Cl)s2)cc(OC(C)C)n1` gave an EC50 in data set [1] of 130 nM. For the same compound, the solubility kinetic in data set [2] was below 0.1 µg/mL.

Take `CC(C)Oc1ncc(-c2nnc(-c3cc(F)c(OC[C@H](N)CO)cc3Cl)s2)cc1C#N`: the response in data set [1] was half-maximal at 13 nM (EC50). Also, in data set [2], the solubility kinetic was below 0.1 µg/mL.

`Cc1cc(-c2nnc(-c3cc(F)c(OC[C@H](N)CO)cc3Cl)s2)cc(NC(C)C)n1`: the EC50 in data set [1] is 18 nM. Besides, in data set [2], the solubility kinetic worked out at 9 µg/mL (≈ 19.9 µM).

With `Cc1cc(-c2nc(-c3ccc(OC[C@H]4COC(=O)N4)cn3)no2)cc(NC(C)C)n1`, the EC50 in data set [1] stood at 120 nM. Moreover, the solubility kinetic in data set [2] stood at 0.9 µg/mL (≈ 2.19 µM).

As for `Cc1cc(-c2nc(-c3cnc(OC[C@H]4COC(=O)N4)c(C)n3)no2)cc(NC(C)C)n1`, a half-maximal effect in data set [1] (EC50) was put at 2.5 nM. Also, in data set [2], the solubility kinetic worked out at 2 µg/mL (≈ 4.7 µM).

With `Cc1cc(-c2nnc(-c3cc(F)c(O[C@@H]4CNC(=O)C4)cc3Cl)s2)cc(NC(C)C)n1`, the EC50 in data set [1] came out at 560 nM. Further, the solubility kinetic in data set [2] was 0.6 µg/mL (≈ 1.3 µM).

As to `Cc1cc(-c2nc(-c3cc(C)c(OC[C@@H]4CCC(=O)N4)c(C)n3)no2)cc(CC(C)C)n1`, the EC50 in data set [1] is 11 nM; in data set [3], above 10000 nM; in data set [5], 340 nM. Besides, in data set [2], the solubility kinetic is above 40 µg/mL. The compound further gave a thermodynamic solubility at 24 h in data set [4] of 21 µg/mL (≈ 48.2 µM). Further, in the data set listed under Homo sapiens, the Ratio EC50 was 7.
